Biological target: T1, HTR7 (Homo sapiens, UniProt P34969)
T1 construct: purchased Promega (in-house HiBiT-GPCR construct library, NanoBRET)
Assay: NanoBRET screen HiBiT-HTR7 in HEK293
Assay type: binding
Method: Each tracer candidate was screened across the entire library of HiBiT-GPCR constructs using NanoBRET as the detection modality. As depicted in Figure 4A, the specificity of interactions was evaluated through decrease in BRET due to competitive displacement of a bound tracer by excess parental compound. Each tracer was analyzed for binding to each HiBiT-GPCR fusion in the absence and in the presence of competing parental compound. Briefly, HEK293 cells were transfected with HiBiT-GPCR constructs diluted into promoterless DNA to reduce expression and maximize translocation to the cell surface. Each tracer candidate was then screened at concentrations of 1 μM and 0.1 μM across cells expressing these fusions. Cells were treated for 1.5 h with tracer either alone or in the presence of 20 μM competing parental compound (i.e., control). BRET was measured upon addition of purified LgBiT and subsequent complementation with HiBiT genetically fused to a GPCR. The specificity of interactions was assessed through a decrease in BRET signal due to competitive displacement of the bound tracer. To further gauge the robustness of these interactions, the fold response over the control (i.e., BRETtracer/BRETcontrol) was calculated. We chose a 1.5-fold response, which translates to ≥7-fold signal over noise as the minimal threshold required to score an interaction as positive.
HiBiT-GPCR DNA constructs were diluted in 10 mM Tris pH 8 to a final concentration of 0.01 μg/μL, arrayed in 96-well plates and stored at −20 °C. For transfection, HEK293 cells were suspended in Opti-MEM (without phenol red) supplemented with 2% fetal bovine serum (Seradigm) and 100 units/mL penicillin–streptomycin (Gibco) at a final concentration of 220,000 cells/mL and dispensed into white 96-well plates at 90 μL/well. Subsequent transfections and screens were carried using an Agilent Bravo Automated Liquid Handling Platform. First, the 96-well HiBiT DNA arrays were diluted 25-fold in Opti-MEM (without serum or phenol red) to a final concentration of 0.0004 μg/μL and 20 μL of the diluted DNAs were transferred into new 96-well plates. Next, promoterless carrier DNA (1 μg/μL) was diluted 25-fold (0.04 μg/μL) and then dispensed into the diluted arrays at 20 μL/well. Following brief mixing, Viafect transfection reagent (Promega) diluted 16-fold into Opti-MEM was dispensed into the plates at 40 μL/well. After mixing by pipetting, plates were incubated for 10 min on the pipetting station deck. The DNA-transfection reagent complexes were then added to plates containing cells. To facilitate the screen, 10 μL of DNA-transfection reagent complexes were added in duplicates to the top 4 and bottom 4 rows, resulting in two identical 48-well arrays per plate. Plates with transfected cells were incubated for 18–20 h at 37 °C/5% CO2. A screen of each tracer across the entire library using two different concentrations requires duplicate plates of transfected cells. Depending on the number of tracers being screened, transfections can be scaled up using the same ratios. The next day, for each tracer, four 20× screening solutions in tracer dilution buffer (Promega) were prepared: two duplicates at final concentration of 20 μM and two duplicates at a final concentration of 2 μM. […] The four resulting solutions were diluted 4-fold in Opti-MEM without serum or phenol red to generate 5× solutions (5 µM and 0.5 µM tracer +/− 100 μM competing compound). To screen the library, a BioTek MultiFlo FX liquid dispenser was used to dispense 22.5 µL of tracer solution to the top 4 rows and 22.5 µL tracer + competing compound solution to the 4 bottom rows. Plates were briefly mixed on an orbital shaker and incubated for 1.5 h at room temperature. […] Plates were briefly mixed on an orbital shaker and incubated for 15 min to allow complementation.

T1 sequence (P34969 whole entry): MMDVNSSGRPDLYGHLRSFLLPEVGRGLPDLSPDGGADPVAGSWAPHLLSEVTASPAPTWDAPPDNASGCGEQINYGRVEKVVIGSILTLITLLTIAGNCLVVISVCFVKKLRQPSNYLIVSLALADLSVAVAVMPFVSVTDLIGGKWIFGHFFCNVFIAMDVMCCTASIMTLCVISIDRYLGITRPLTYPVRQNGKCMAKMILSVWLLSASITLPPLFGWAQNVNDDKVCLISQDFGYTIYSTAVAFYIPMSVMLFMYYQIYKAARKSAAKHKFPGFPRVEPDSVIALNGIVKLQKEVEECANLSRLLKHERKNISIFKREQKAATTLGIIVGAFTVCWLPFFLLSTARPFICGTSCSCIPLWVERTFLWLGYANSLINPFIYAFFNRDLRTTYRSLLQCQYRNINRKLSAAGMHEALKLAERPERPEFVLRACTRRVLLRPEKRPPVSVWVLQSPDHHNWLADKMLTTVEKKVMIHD

Row | SMILES | NanoBRET Fold Response (HTR7, tracer 0.1μM) | NanoBRET Fold Response (HTR7, tracer 1μM) | also measured
1 | O=C(CCc1ccc2n1[B-](F)(F)[N+]1=C(c3ccc[nH]3)C=CC1=C2)NCc1ccc(C(=O)NCCOCCC(=O)N[C@@H]2CC[C@@]3(O)[C@H]4Cc5ccc(O)c6c5[C@@]3(CCN4CC3CC3)[C@H]2O6)cc1 [Naltrexone-3-NB590] | 0.97 | 0.97 | 
2 | CCCn1c(=O)c2[nH]c(-c3ccc(OCC(=O)NCCNC(=O)CCOCCNC(=O)c4ccc(CNC(=O)CCc5ccc6n5[B-](F)(F)[N+]5=C(c7ccc[nH]7)C=CC5=C6)cc4)cc3)nc2n(CCC)c1=O [XAC-3-NB590] | 0.99 | 0.96 | 
3 | CC(C)N(CC[C@H](c1ccccc1)c1cc(CCNC(=O)c2ccc(CNC(=O)CCc3ccc4n3[B-](F)(F)[N+]3=C(c5ccc[nH]5)C=CC3=C4)cc2)ccc1O)C(C)C [Tolterodine-BZ-NB590] | 1.06 | 1.03 | 
4 | N#CN/C(=N\CCNC(=O)c1ccc(N)cc1)NCCCOc1cccc(CN2CCCCC2)c1 [Aminopotentidine (unmodified)] |  |  | NanoBRET Fold Response (HTR7, other tracers/Aminopotentidine (unmodified), 0.1μM): 1.10; NanoBRET Fold Response (HTR7, other tracers/Aminopotentidine (unmodified), 1μM): 1.18
5 | COc1ccc2[nH]c(-c3ccc(CNC(=O)CCOCCOCCOCCOCCNC(=O)CCc4ccc5n4[B-](F)(F)[N+]4=C(c6ccc[nH]6)C=CC4=C5)cc3)c(CCNC(C)=O)c2n1 [AzomelatoninICO9-2-NB590] |  |  | NanoBRET Fold Response (0.1μM tracer): 0.96; NanoBRET Fold Response (1μM tracer): 1.02
6 | COc1ccccc1N1CCN(CCCCN2C(=O)c3ccc(CNC(=O)CCOCCNC(=O)c4ccc(CNC(=O)CCc5ccc6n5[B-](F)(F)[N+]5=C(c7ccc[nH]7)C=CC5=C6)cc4)cc3C2=O)CC1 [NAN-190-3-NB590] | 1.21 | 1.05 | 
7 | Cc1nc2n(c(=O)c1CCN1CCC(c3noc4cc(F)ccc34)CC1)CCCC2OC(=O)NCCOCCOCCOCCOCCNC(=O)CCc1ccc2n1[B-](F)(F)[N+]1=C(c3ccc[nH]3)C=CC1=C2 (centres unmarked) [Risperidone-2-NB590] | 1.06 | 1.19 | 
8 | O=C(CCOCCOCCOCCOCCNC(=O)CCc1ccc2n1[B-](F)(F)[N+]1=C(c3ccc[nH]3)C=CC1=C2)NCCCN1CCN(C2=Nc3ccccc3Oc3ccc(Cl)cc32)CC1 [Loxapine-a-2-NB590] | 1.07 | 1.30 | 
9 | COc1ccccc1N1CCN(CCCCN2C(=O)c3ccc(CNC(=O)CCOCCOCCOCCOCCNC(=O)CCc4ccc5n4[B-](F)(F)[N+]4=C(c6ccc[nH]6)C=CC4=C5)cc3C2=O)CC1 [NAN-190-2-NB590] |  | 1.10 | 
10 | CC(C)N(CC[C@H](c1ccccc1)c1cc(CCNC(=O)CCOCCOCCOCCOCCNC(=O)CCc2ccc3n2[B-](F)(F)[N+]2=C(c4ccc[nH]4)C=CC2=C3)ccc1O)C(C)C [Tolterodine-2-NB590] | 1.06 | 1.07 | 
11 | N#CN=C(NCCCOc1cccc(CN2CCCCC2)c1)NCCNC(=O)CCOCCOCCOCCOCCNC(=O)CCc1ccc2n1[B-](F)(F)[N+]1=C(c3ccc[nH]3)C=CC1=C2 [Aminopotentidine-2-NB590] | 1.00 | 1.00 | 
12 | CCOC(=O)c1cc(C#N)c(N2CCC(C(=O)NS(=O)(=O)Cc3ccccc3/C=C/C(=O)NCCNC(=O)CCc3ccc4n3[B-](F)(F)[N+]3=C(c5ccc[nH]5)C=CC3=C4)CC2)nc1C [AZD1283-1-NB590] |  |  | NanoBRET Fold Response (HTR7, 0.1μM): 1.08; NanoBRET Fold Response (HTR7, 1μM): 1.09
13 | CN(C)CCC=C1c2ccccc2CCc2ccc(C(=O)NCCNC(=O)CCOCCOCCOCCOCCNC(=O)CCc3ccc4n3[B-](F)(F)[N+]3=C(c5ccc[nH]5)C=CC3=C4)cc21 [Amitriptyline-b-2-NB590] |  |  | NanoBRET Fold Response (tracer at 0.1μM, listed as amitriptyline-b-2-NB590): 0.94; NanoBRET Fold Response (tracer at 1μM, listed as amitriptyline-b-2-NB590): 0.94
14 | CN(C)CCC=C1c2ccccc2CCc2ccc(C(=O)NCCNC(=O)CCOCCOCCOCCOCCNC(=O)CCc3ccc4n3[B-](F)(F)[N+]3=C(c5ccc[nH]5)C=CC3=C4)cc21 [Amitriptyline-a-2-NB590] |  |  | NanoBRET Fold Response (tracer at 0.1μM): 1.00; NanoBRET Fold Response (tracer at 1μM): 1.15
15 | O=C(CCc1ccc2n1[B-](F)(F)[N+]1=C(c3ccc[nH]3)C=CC1=C2)NCCOCCOCCNC(=O)OCCOCCN1CCN(C2=Nc3ccccc3Sc3ccccc32)CC1 [Quetiapine-a-2-NB590] | 1.01 | 1.15 | 
16 | Cc1cc2c(s1)Nc1ccccc1N=C2N1CCN(CCCNC(=O)CCOCCOCCOCCOCCNC(=O)CCc2ccc3n2[B-](F)(F)[N+]2=C(c4ccc[nH]4)C=CC2=C3)CC1 [Olanzapine-a-2-NB590] | 0.99 | 1.16 | 
17 | COc1ccc2c(n1)c(CCNC(C)=O)cn2CCNC(=O)CCc1ccc2n1[B-](F)(F)[N+]1=C(c3ccc[nH]3)C=CC1=C2 [Azamelatonin-1-NB590] |  |  | NanoBRET Fold Response (0.1μM tracer): 0.99; NanoBRET Fold Response (1μM tracer): 0.99
18 | CN(CCC=C1c2ccccc2CCc2ccccc21)C(=O)CCOCCOCCOCCOCCNC(=O)CCc1ccc2n1[B-](F)(F)[N+]1=C(c3ccc[nH]3)C=CC1=C2 [Amitriptyline-e-2-NB590] |  |  | NanoBRET Fold Response (tracer at 1μM): 0.96
19 | O=C(CCc1ccc2n1[B-](F)(F)[N+]1=C(c3ccc[nH]3)C=CC1=C2)NCc1ccc(C(=O)NCCOCCOCCNCC(O)COc2cccc3ccccc23)cc1 (centres unmarked) [Propranolol-3-NB590] |  |  | NanoBRET Fold Response (HTR7, 0.1μM): 1.03; NanoBRET Fold Response (HTR7, 1μM): 1.02
20 | O=C(CCOCCOCCOCCOCCNC(=O)CCc1ccc2n1[B-](F)(F)[N+]1=C(c3ccc[nH]3)C=CC1=C2)NCCCN1CCN(C2=Nc3cc(Cl)ccc3Nc3ccccc32)CC1 [Clozapine-a-2-NB590] |  |  | NanoBRET Fold Response (HTR7, 0.1μM tracer): 1.22; NanoBRET Fold Response (HTR7, 1μM tracer): 1.08
